Laboratory results taken from patent publication US20090215826A1, “SOLID FORMS OF A PYRROLIDINE-3,4-DICARBOXAMIDE DERIVATIVE” (priority 2007, published 2009).

Assay: Storage stability of crystalline form B (HPLC, IR, XRPD)
Assay type: physicochemical
Details: storage for 1 year up to 40° C./75% rh
Experimental: “IR” is used herein as an acronym of Infra Red spectroscopy. IR spectra were recorded as film of a Nujol suspension of approximately 5 mg of sample and few Nujol between two sodium chloride plates, with an FTIR spectrometer in transmittance. The Spectrometer is a Nicolet™ 20SXB or equivalent (resolution 2 cm^−1, 32 or more coadded scans, MCT detector).
“XRPD (is used herein as an acronym of X-Ray Powder Diffraction)” X-ray diffraction patterns were recorded at ambient conditions in transmission geometry with a STOE STADIP diffractometer (Cu Kα radiation, primary monochromator, position sensitive detector, angular range 3° to 42° 2 Theta, approximately 60 minutes total measurement time). The samples were prepared and analyzed without further processing (e.g. grinding or sieving) of the substance. “TGA (is used herein as an acronym of ThermoGravimetric Analysis)” was performed on a Mettler-Toledo™ thermogravimetric analyzer (TGA850 or TGA851). System suitability tests and calibrations were carried out according to the internal standard operation procedure.
The Form B has been characterized with IR and XRPD. The chemical stability was measured by HPLC (high performance liquid chromatography).

O=C(Nc1ccc(Cl)cn1)[C@H]1CN(CC(F)F)C[C@@H]1C(=O)Nc1ccc(-n2ccccc2=O)cc1F [Form B, (3R,4R)-1-(2,2-Difluoroethyl)-pyrrolidine-3,4-dicarboxylic acid 3-[(5-chloro-pyridin-2-yl)-amide] 4-{[2-fluoro-4-(2-oxo-2H-pyridin-1-yl)-phenyl]-amide}]
chemical stability (degradation) measured by HPLC: No significant degradation | crystal form compared to the initial analysis (IR and XRPD): has not been changed
